Experimental data: ChEMBL document CHEMBL5500367, “Improving tumor sensitivity by the introduction of an ester chain to triaryl derivatives targeting PD-1/PD-L1” (Eur J Med Chem, 2024)
Calls of active or inactive are those of the source. The rule behind the calls is not given here.

Assays:
[1] = biological target: Programmed cell death protein 1/Programmed cell death 1 ligand 1 (Homo sapiens, UniProt Q9NZQ7); assay: Inhibition of PD-1/PD-L1 (unknown origin) interaction incubated for 15 mins by HTRF assay; type: protein-complex assay
Sequence of Programmed cell death protein 1/Programmed cell death 1 ligand 1 (Q15116 whole entry): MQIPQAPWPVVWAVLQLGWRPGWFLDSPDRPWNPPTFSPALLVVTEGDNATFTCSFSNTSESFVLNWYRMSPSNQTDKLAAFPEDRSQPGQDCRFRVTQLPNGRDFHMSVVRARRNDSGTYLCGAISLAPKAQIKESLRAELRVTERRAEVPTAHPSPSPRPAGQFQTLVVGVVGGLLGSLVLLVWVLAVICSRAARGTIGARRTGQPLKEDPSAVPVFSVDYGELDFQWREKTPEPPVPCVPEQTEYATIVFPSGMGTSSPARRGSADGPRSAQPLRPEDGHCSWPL
Sequence of Programmed cell death protein 1/Programmed cell death 1 ligand 1 (Q9NZQ7 whole entry): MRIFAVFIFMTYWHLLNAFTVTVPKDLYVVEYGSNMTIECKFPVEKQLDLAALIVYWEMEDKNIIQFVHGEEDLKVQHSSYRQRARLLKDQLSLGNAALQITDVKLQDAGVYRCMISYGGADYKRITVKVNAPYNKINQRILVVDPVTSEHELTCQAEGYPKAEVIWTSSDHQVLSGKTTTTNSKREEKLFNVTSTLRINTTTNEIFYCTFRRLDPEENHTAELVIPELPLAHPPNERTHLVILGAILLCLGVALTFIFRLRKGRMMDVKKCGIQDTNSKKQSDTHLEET

A549 [2] = assay: Cytotoxicity against human A549 cells assessed as decrease in cell viability at 2.5 to 10 uM incubated for 48 hrs by MTT assay; type: functional, cell-based; conditions: dose 2.5-10 µM
NCI-H1299 = assay: Cytotoxicity against human NCI-H1299 cells assessed as inhibition of cell viability incubated for 72 hrs by MTT assay; type: functional, cell-based; conditions: NCI-H1299, 72 h
HCT-116 = assay: Cytotoxicity against human HCT-116 cells assessed as inhibition of cell viability incubated for 72 hrs by MTT assay; type: functional, cell-based; conditions: HCT-116, 72 h
A549 [3] = assay: Cytotoxicity against human A549 cells assessed as inhibition of cell viability incubated for 72 hrs by MTT assay; type: functional, cell-based; conditions: A549, 72 h
[4] = Cytotoxicity against human PBMC cells assessed as decrease in cell viability at 2.5 to 10 uM incubated for 48 hrs by MTT assay; type: toxicity, cell-based; conditions: dose 2.5-10 µM
MDA-MB-231 = assay: Cytotoxicity against human MDA-MB-231 cells assessed as inhibition of cell viability incubated for 72 hrs by MTT assay; type: functional, cell-based; conditions: MDA-MB-231, 72 h
[5] = Metabolic stability in human liver microsomes assessed as intrinsic clearance by LC-MS/MS analysis; type: ADME, Microsome
4T1 [6] = assay: Antitumor activity against mouse 4T1 cells allografted in BALB/c mouse assessed as increase in CD8+ cell infiltration administered intraperitoneally treated for 21 days consecutively by IHC analysis; type: functional, cell-based; conditions: dose 10-20 mg/kg, route ip, time 21.0 day
4T1 [7] = assay: Antitumor activity against mouse 4T1 cells allografted in BALB/c mouse at 10 mg/kg, ip treated for 21 days consecutively relative to control; type: functional; conditions: 4T1, 504 h, time 21 day, read-out: TGI
A549 [8] = assay: Cytotoxicity against human A549 cells assessed as inhibition of cell viability at 10 uM preincubated with A549 cells for 2 hrs followed by co-culture with CD3/CD28/CD2-activated PBMC cells for 48 hrs by MTT assay relative to control; type: functional; conditions: time 50 hrs
[9] = Toxicity in BALB/c mouse allografted with mouse 4T1 cells assessed as drug tolerance at 10 to 20 mg/kg, ip treated for 21 days consecutively; type: organism-based; conditions: in vivo, 504 h, dose 10-20 mg/kg, time 21 day
[10] = biological target: Programmed cell death 1 ligand 1 (Homo sapiens, UniProt Q9NZQ7)
Sequence of Programmed cell death 1 ligand 1 (Q9NZQ7 whole entry): as above
Description: Binding affinity to CM5 chip immobilized recombinant human PD-L1 assessed as association constant by SPR analysis

[11] = Metabolic stability in human liver microsomes assessed as half life by LC-MS/MS analysis; type: ADME, Microsome
[12] = Toxicity in BALB/c mouse allografted with mouse 4T1 cells assessed as body weight loss at 10 to 20 mg/kg, ip treated for 21 days consecutively; type: organism-based; conditions: in vivo, 504 h, dose 10-20 mg/kg, time 21 day
4T1 [13] = assay: Antitumor activity against mouse 4T1 cells allografted in BALB/c mouse at 20 mg/kg, ip treated for 21 days consecutively relative to control; type: functional; conditions: 4T1, 504 h, time 21 day, read-out: TGI
[14] = Toxicity in BALB/c mouse allografted with mouse 4T1 cells assessed as animal death at 10 to 20 mg/kg, ip treated for 21 days consecutively; type: organism-based; conditions: in vivo, 504 h, dose 10-20 mg/kg, time 21 day

SMILES: COc1cc(OC(=O)c2cccc(-c3ccccc3)c2C)ccc1CNC[C@@H](O)CO
- IC50 [1]: 0.302 µM

SMILES: Cc1c(C(=O)Oc2ccc(CNC(CO)(CO)CO)c(OCc3cccc(C#N)c3)c2C)cccc1-c1ccccc1
- IC50 [1]: 0.109 µM

SMILES: Cc1c(C(=O)Oc2ccc(CN[C@@H](CO)C(=O)O)c(OCc3cccc(C#N)c3)c2)cccc1-c1ccccc1
- IC50 [1]: > 1 µM

SMILES: Cc1c(C(=O)Oc2ccc(CN[C@H](CO)C(=O)O)c(OCc3cccc(C#N)c3)c2)cccc1-c1ccccc1
- IC50 [1]: 0.024 µM

SMILES: COc1cc(OC(=O)c2cccc(-c3ccccc3)c2C)ccc1CNCCN(C)C
- IC50 [1]: 0.358 µM

SMILES: COc1cc(OC(=O)c2cccc(-c3ccccc3)c2C)ccc1CNC[C@H](O)CO
- IC50 [1]: 0.381 µM

SMILES: Cc1cc(OC(=O)c2cccc(-c3ccccc3)c2C)cc(OCc2cccc(C#N)c2)c1CNC[C@H](O)CO
- IC50 [1]: 0.254 µM

SMILES: COc1cc(OC(=O)c2cccc(-c3ccccc3)c2C)ccc1CN[C@@H](CO)C(=O)O
- Activity (A549 [2]): inactive
- IC50 (NCI-H1299): > 20 µM
- IC50 (HCT-116): > 20 µM
- IC50 [1]: 0.0273 µM
- IC50 (A549 [3]): > 20 µM
- Activity [4]: Non-Toxic
- IC50 (MDA-MB-231): > 20 µM

SMILES: Cc1c(C(=O)Oc2ccc(CN[C@@H](CO)C(=O)O)c(OCc3cccc(C#N)c3)c2C)cccc1-c1ccccc1
- IC50 [1]: 0.231 µM

SMILES: Cc1c(C(=O)Oc2ccc(CN3C[C@H](O)C[C@H]3C(=O)O)c(OCc3cccc(C#N)c3)c2)cccc1-c1ccccc1
- Activity (A549 [2]): inactive
- IC50 (NCI-H1299): > 20 µM
- IC50 (HCT-116): > 20 µM
- CLH [5]: 100 µL/min/mg
- IC50 [1]: 0.00121 µM
- Activity (4T1 [6]): Dose-Dependent Effect
- inhibition in vivo at 10 mg/kg (4T1 [7]): 49.4%
- IC50 (A549 [3]): > 20 µM
- inhibition at 10 µM (A549 [8]): 76.5%
- Activity [9]: Non-Toxic
- Ka [10]: 7.9 10^5/M/s
- Activity [4]: Non-Toxic
- t1/2 [11]: 18.8 min
- Activity [12]: Non-Toxic
- inhibition in vivo at 20 mg/kg (4T1 [13]): 67.8%
- Activity [14]: Non-Toxic
- IC50 (MDA-MB-231): > 20 µM

SMILES: COc1cc(OC(=O)c2cccc(-c3ccccc3)c2C)ccc1CNC(CO)(CO)CO
- IC50 [1]: 0.0724 µM

SMILES: COc1cc(OC(=O)c2cccc(-c3ccccc3)c2C)ccc1CN1C[C@H](O)C[C@H]1C(=O)O
- IC50 [1]: 0.113 µM

SMILES: COc1cc(OCc2cccc(-c3ccccc3)c2C)cc(OC)c1CN1CCCC[C@H]1C(=O)O
- Activity (A549 [2]): inactive
- CLH [5]: 216 µL/min/mg
- Ka [10]: 1.17 10^5/M/s
- Activity [4]: Non-Toxic
- t1/2 [11]: 14.2 min
- inhibition in vivo at 20 mg/kg (4T1 [13]): 33.1%

SMILES: COc1cc(OC(=O)c2cccc(-c3ccccc3)c2C)ccc1CNCCO
- IC50 [1]: 0.263 µM

SMILES: CC(=O)NCCNCc1ccc(OC(=O)c2cccc(-c3ccccc3)c2C)cc1OCc1cccc(C#N)c1
- IC50 [1]: 0.506 µM

SMILES: Cc1cc(OC(=O)c2cccc(-c3ccccc3)c2C)ccc1CNC(CO)(CO)CO
- IC50 (NCI-H1299): 16.5 µM
- IC50 (HCT-116): 12.2 µM
- IC50 [1]: 0.00198 µM
- IC50 (A549 [3]): 18.6 µM
- Ka [10]: 4.37 10^5/M/s
- IC50 (MDA-MB-231): 18.3 µM

SMILES: Cc1c(C(=O)Oc2ccc(CNC(CO)(CO)CO)c(Br)c2)cccc1-c1ccccc1
- Activity (A549 [2]): inactive
- IC50 (NCI-H1299): 18.7 µM
- IC50 (HCT-116): > 20 µM
- IC50 [1]: 0.00262 µM
- IC50 (A549 [3]): > 20 µM
- Ka [10]: 1.16 10^5/M/s
- Activity [4]: Non-Toxic
- IC50 (MDA-MB-231): > 20 µM

SMILES: Cc1cc(OC(=O)c2cccc(-c3ccccc3)c2C)cc(OCc2cccc(C#N)c2)c1CNCCO
- IC50 [1]: 0.271 µM

SMILES: COc1cc(OC(=O)c2cccc(-c3ccccc3)c2C)ccc1CN1CCCC[C@H]1C(=O)O
- IC50 [1]: > 1 µM

SMILES: COc1cc(OC(=O)c2cccc(-c3ccccc3)c2C)ccc1CNCCCO
- IC50 [1]: > 1 µM

SMILES: Cc1cc(OC(=O)c2cccc(-c3ccccc3)c2C)cc(OCc2cccc(C#N)c2)c1CN[C@@H](CO)C(=O)O
- IC50 [1]: 0.0643 µM

SMILES: Cc1c(C(=O)Oc2cc(OCc3cccc(C#N)c3)c(CNC(CO)CO)cc2Cl)cccc1-c1ccccc1
- IC50 [1]: 0.118 µM

SMILES: Cc1c(C(=O)Oc2ccc(CN[C@@H](CO)C(=O)O)cc2)cccc1-c1ccccc1
- Activity (A549 [2]): inactive
- IC50 (NCI-H1299): > 20 µM
- IC50 (HCT-116): > 20 µM
- IC50 [1]: 0.0175 µM
- IC50 (A549 [3]): > 20 µM
- Activity [4]: Non-Toxic
- IC50 (MDA-MB-231): > 20 µM

SMILES: Cc1c(C(=O)Oc2ccc(CNCCO)c(OCc3cccc(C#N)c3)c2)cccc1-c1ccccc1
- Activity (A549 [2]): inactive
- IC50 (NCI-H1299): 7.4 µM
- IC50 (HCT-116): 7.35 µM
- IC50 [1]: 0.0132 µM
- IC50 (A549 [3]): 12.7 µM
- Activity [4]: Non-Toxic
- IC50 (MDA-MB-231): 7.68 µM

SMILES: Cc1c(COc2cc(OCc3cccc(C#N)c3)c(CN3C[C@H](O)C[C@@H]3C(=O)O)cc2Cl)cccc1-c1ccc2c(c1)OCCO2
- Activity (A549 [2]): inactive
- Activity [4]: Non-Toxic

SMILES: Cc1c(C(=O)Oc2ccc(CNC(CO)(CO)CO)cc2)cccc1-c1ccccc1
- IC50 [1]: 0.0256 µM

SMILES: COc1cc(OC(=O)c2cccc(-c3ccccc3)c2C)ccc1CN1CCC(O)CC1
- IC50 [1]: 0.0786 µM

SMILES: COc1cc(OC(=O)c2cccc(-c3ccccc3)c2C)ccc1CNCCNC(C)=O
- IC50 [1]: 0.893 µM

SMILES: Cc1c(C(=O)Oc2ccc(CN[C@H](CO)C(=O)O)cc2)cccc1-c1ccccc1
- IC50 [1]: 0.0551 µM

SMILES: COc1cc(OC(=O)c2cccc(-c3ccccc3)c2C)cc(OC)c1CNCC(O)CO (configuration not stated)
- IC50 [1]: 0.228 µM

SMILES: Cc1cc(OC(=O)c2cccc(-c3ccccc3)c2C)cc(OCc2cccc(C#N)c2)c1CNC(CO)(CO)CO
- IC50 [1]: 0.133 µM

SMILES: Cc1cc(OC(=O)c2cccc(-c3ccccc3)c2C)cc(OCc2cccc(C#N)c2)c1CN[C@H](CO)C(=O)O
- IC50 [1]: 0.0395 µM

SMILES: Cc1cc(OC(=O)c2cccc(-c3ccccc3)c2C)ccc1CN[C@@H](CO)C(=O)O
- Activity (A549 [2]): inactive
- IC50 (NCI-H1299): > 20 µM
- IC50 (HCT-116): > 20 µM
- IC50 [1]: 0.00225 µM
- IC50 (A549 [3]): > 20 µM
- Ka [10]: 5.31 10^5/M/s
- Activity [4]: Non-Toxic
- IC50 (MDA-MB-231): > 20 µM

SMILES: COc1cc(OC(=O)c2cccc(-c3ccccc3)c2C)ccc1CNC(CO)CO
- IC50 (NCI-H1299): 11.4 µM
- IC50 (HCT-116): 12.2 µM
- IC50 [1]: 0.0271 µM
- IC50 (A549 [3]): 18.8 µM
- IC50 (MDA-MB-231): > 20 µM
